Patent publication US5100797A, “Fucosidase inhibitors” (priority 1989, dated 1992)

Experiments:
[1] = biological target: T1, human liver α-L-fucosidase (Homo sapiens, UniProt P04066); experiment: Inhibition of human liver α-L-fucosidase (4-umbelliferyl glycoside substrate, Dixon plot); assay type: biochemical; settings: for Ki: human liver extract, 4-umbelliferyl substrate 0.5 mM, Dixon graphical procedure; for fucosidase inhibition, in words: human liver α-L-fucosidase
T1 construct: The resultant supernatant was used as the source of human glycosidases; from tissue; host or cells: post-mortem human liver, 37,000 g supernatant of homogenate
T1 sequence (P04066 32-466): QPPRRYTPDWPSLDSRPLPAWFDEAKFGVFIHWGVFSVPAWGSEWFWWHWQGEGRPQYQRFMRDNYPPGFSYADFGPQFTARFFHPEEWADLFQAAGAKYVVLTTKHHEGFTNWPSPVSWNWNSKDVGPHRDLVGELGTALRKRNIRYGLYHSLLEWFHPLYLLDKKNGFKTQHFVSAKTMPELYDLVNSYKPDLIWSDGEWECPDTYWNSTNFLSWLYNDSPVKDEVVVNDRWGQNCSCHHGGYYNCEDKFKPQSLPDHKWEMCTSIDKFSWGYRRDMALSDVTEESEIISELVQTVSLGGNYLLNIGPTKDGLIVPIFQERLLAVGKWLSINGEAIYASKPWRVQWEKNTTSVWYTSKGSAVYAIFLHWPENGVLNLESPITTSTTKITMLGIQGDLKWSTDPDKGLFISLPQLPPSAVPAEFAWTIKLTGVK
Protocol: (§1) Post-mortem human liver, which had been stored at -20° C. until required was homogenized in deionized water (50%, w/v) in a Potter-Elvehjem homogenizer and then centrifuged at 37,000 g for 30 min in an MSE 18 centrifuge. The resultant supernatant was used as the source of human glycosidases.
The specificity of the inhibitors was determined by assaying the glycosidases in the presence of and absence of a 1 mM solution of each compound. […] The Lineweaver-Burk graphical procedure and secondary plots of the slope against inhibitor concentration were used to determine the nature of inhibition and the values of Ki for these activities.

[2] = system: N-acetyl-β-D-hexosaminidase; experiment: Glycosidase specificity in human liver extract: N-acetyl-β-D-hexosaminidase; assay type: biochemical; settings: 1 mM compound
Protocol: as §1, with “glycosidases. A lyophilized extract of liver from Charonia lampas was obtained from Seikagaku Kogyo Co., Japan for the isolation of α-L-fucosidase by the published procedure of Iijima and Egami, J. Biochem. 70, 75-78 (1971).” for “glycosidases.”
(§2) The glycosidase activities in an extract of human liver were assayed by using the appropriate fluorigenic 4-umbelliferyl glycoside substrate (Koch-Light, Haverhill, Suffolk, U.K.) with a concentration of 0.5 mM at the optimal pH for each enzyme [Burditt et al., Biochem. J. 189, 467-473 (1980)]. The specificity of the inhibitors was determined by assaying the glycosidases in the presence of and absence of a 1 mM solution of each compound. The nature of the inhibition of human α-L-fucosidase, the value of Ki determined by using the Dixon graphical procedure and the effect of pH on the inhibition were investigated as described previously by Al Daher et al., Biochem. J. 258, 613-615 (1989). Bovine epididymal and Charonia lampas α-L-fucosidase were assayed using para-nitrophenyl-α-L-fucopyranoside as substrate in phosphate-citrate buffer (McIlvaine), pH 6.0, and 0.005 M-sodium acetate buffer, pH 4.5 containing 0.15 M NaCl, respectively. The Lineweaver-Burk graphical procedure and secondary plots of the slope against inhibitor concentration were used to determine the nature of inhibition and the values of Ki for these activities.

[3] = biological target: Charonia lampas α-L-fucosidase; experiment: Inhibition of Charonia lampas α-L-fucosidase (Lineweaver-Burk); assay type: biochemical; settings: para-nitrophenyl-α-L-fucopyranoside; sodium acetate buffer pH 4.5, 0.15 M NaCl; read-out: Ki (M) C. lampas α-L-fucosidase
Protocol: as §1, with “glycosidases. A lyophilized extract of liver from Charonia lampas was obtained from Seikagaku Kogyo Co., Japan for the isolation of α-L-fucosidase by the published procedure of Iijima and Egami, J. Biochem. 70, 75-78 (1971).” for “glycosidases.”
as §2

[4] = biological target: T2, Bovine epididymal α-L-fucosidase (Bos taurus, UniProt Q2KIM0); experiment: Inhibition of bovine epididymal α-L-fucosidase (Lineweaver-Burk); assay type: biochemical; settings: para-nitrophenyl-α-L-fucopyranoside; phosphate-citrate buffer pH 6.0; read-out: Ki (M) Bovine epididymis α-L-fucosidase
T2 construct: Bovine epididymal and Charonia lampas α-L-fucosidase were assayed; from tissue; host or cells: bovine epididymis
T2 sequence (Q2KIM0 23-468): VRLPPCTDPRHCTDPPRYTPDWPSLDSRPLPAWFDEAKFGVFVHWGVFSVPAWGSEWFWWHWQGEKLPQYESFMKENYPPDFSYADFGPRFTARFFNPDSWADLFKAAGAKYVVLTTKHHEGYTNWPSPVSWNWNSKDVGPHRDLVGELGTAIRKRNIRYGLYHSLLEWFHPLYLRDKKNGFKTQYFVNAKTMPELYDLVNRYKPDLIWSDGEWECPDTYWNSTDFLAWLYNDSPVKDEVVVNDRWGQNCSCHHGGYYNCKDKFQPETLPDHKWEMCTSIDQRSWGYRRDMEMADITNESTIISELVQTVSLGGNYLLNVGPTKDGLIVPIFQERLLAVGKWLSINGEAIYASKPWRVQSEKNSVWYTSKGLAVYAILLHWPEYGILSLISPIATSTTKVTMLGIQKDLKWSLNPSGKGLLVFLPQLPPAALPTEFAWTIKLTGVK
Protocol: as §2

[5] = pKa of inhibitors; assay type: physicochemical
[6] = biological target: T3, β-D-galactosidase (Homo sapiens, UniProt P16278); experiment: Glycosidase specificity in human liver extract: β-D-galactosidase; assay type: biochemical; settings: read-out: Other specificities (% inhibition at 1 mM): β-D-galactosidase, 1 mM compound
T3 construct: 4-umbelliferyl glycoside substrate
T3 sequence (P16278 29-677): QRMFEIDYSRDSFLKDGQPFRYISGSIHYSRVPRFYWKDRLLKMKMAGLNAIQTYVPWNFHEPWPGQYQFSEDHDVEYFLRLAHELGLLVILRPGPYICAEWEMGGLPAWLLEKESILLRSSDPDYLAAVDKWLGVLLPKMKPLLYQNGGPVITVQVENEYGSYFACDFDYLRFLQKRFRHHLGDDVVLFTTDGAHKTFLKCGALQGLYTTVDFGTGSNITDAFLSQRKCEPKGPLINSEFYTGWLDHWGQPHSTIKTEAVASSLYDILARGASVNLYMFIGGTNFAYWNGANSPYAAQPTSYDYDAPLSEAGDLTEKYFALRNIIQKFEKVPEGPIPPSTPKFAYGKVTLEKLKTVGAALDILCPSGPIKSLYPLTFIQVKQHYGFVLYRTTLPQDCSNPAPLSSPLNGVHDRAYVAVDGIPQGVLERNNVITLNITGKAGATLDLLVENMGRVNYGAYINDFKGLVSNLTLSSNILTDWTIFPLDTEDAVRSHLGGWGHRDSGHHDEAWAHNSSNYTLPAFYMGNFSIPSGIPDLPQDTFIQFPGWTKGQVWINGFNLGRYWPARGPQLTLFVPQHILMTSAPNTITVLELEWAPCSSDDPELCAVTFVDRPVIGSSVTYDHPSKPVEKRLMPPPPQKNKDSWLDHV
Protocol: as §1, with “glycosidases. A lyophilized extract of liver from Charonia lampas was obtained from Seikagaku Kogyo Co., Japan for the isolation of α-L-fucosidase by the published procedure of Iijima and Egami, J. Biochem. 70, 75-78 (1971).” for “glycosidases.”
(§3) The glycosidase activities in an extract of human liver were assayed by using the appropriate fluorigenic 4-umbelliferyl glycoside substrate (Koch-Light, Haverhill, Suffolk, U.K.) with a concentration of 0.5 mM at the optimal pH for each enzyme [Burditt et al., Biochem. J. 189, 467-473 (1980)]. The specificity of the inhibitors was determined by assaying the glycosidases in the presence of and absence of a 1 mM solution of each compound. The nature of the inhibition of human α-L-fucosidase, the value of Ki determined by using the Dixon graphical procedure and the effect of pH on the inhibition were investigated as described previously by Al Daher et al., Biochem. J. 258, 613-615 (1989). […]

[7] = biological target: T4, α-D-mannosidase (Homo sapiens, UniProt O00754); experiment: Glycosidase specificity in human liver extract: α-D-mannosidase; assay type: biochemical
T4 construct: The resultant supernatant was used as the source of human glycosidases; from tissue; host or cells: post-mortem human liver, 37,000 g supernatant of homogenate
T4 sequence (O00754 50-601 limits assumed): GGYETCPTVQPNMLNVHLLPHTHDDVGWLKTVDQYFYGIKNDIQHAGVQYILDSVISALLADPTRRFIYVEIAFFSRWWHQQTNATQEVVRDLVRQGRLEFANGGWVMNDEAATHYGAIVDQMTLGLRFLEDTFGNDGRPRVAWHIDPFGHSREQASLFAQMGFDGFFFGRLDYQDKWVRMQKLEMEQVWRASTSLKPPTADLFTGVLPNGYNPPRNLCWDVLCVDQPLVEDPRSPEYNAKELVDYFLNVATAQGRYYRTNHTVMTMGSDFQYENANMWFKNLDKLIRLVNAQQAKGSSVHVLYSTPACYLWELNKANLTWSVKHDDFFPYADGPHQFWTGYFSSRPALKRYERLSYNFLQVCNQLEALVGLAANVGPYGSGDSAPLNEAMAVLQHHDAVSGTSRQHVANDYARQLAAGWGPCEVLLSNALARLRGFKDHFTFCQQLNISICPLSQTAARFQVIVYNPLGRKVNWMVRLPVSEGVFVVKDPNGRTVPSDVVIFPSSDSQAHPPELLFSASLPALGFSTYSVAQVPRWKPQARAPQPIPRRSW
T4 sequence (O00754 602-882 limits assumed): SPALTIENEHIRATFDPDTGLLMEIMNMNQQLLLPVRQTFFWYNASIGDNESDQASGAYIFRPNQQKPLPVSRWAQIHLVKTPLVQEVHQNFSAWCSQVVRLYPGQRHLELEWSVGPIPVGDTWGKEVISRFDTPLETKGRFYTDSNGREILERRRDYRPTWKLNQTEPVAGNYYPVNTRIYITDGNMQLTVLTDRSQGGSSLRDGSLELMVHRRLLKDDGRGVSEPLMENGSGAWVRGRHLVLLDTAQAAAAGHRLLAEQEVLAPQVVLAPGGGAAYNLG
T4 sequence (O00754 883-1011 limits assumed): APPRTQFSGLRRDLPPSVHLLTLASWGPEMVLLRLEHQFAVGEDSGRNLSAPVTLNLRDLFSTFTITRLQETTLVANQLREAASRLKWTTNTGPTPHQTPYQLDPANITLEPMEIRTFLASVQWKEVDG
Protocol: as §1, with “glycosidases. A lyophilized extract of liver from Charonia lampas was obtained from Seikagaku Kogyo Co., Japan for the isolation of α-L-fucosidase by the published procedure of Iijima and Egami, J. Biochem. 70, 75-78 (1971).” for “glycosidases.”
as §3

[8] = system: mammalian α-L-fucosidases; settings: background statement; cited from earlier work
[9] = system: α-glucosidase; settings: Kite et al. 1988; cited from earlier work

| Ki [1] [µM] | Other specificities (% inhibition at 1 mM): N-acetyl-β-D-hexosaminidase [2] [%] | Ki [3] [M] | Ki [4] [M] | Compound | fucosidase inhibition, in words [1] | pKa [5] | also measured |
| --- | --- | --- | --- | --- | --- | --- | --- |
| 0.07 | 36 | 5.8e-07 | 2e-06 | CC[C@@H]1N[C@H](CO)[C@@H](O)[C@H](O)[C@@H]1O [Compound 8, β-1-C-Ethyl Deoxymannojirimycin] | very powerful fucosidase inhibitor | 7.8 |  |
|  |  |  |  | OC[C@H]1NC[C@@H](O)[C@@H](O)[C@@H]1O [Compound 10, deoxymannojirimycin] |  | 7.2 | inhibition of mannosidase activity, in words [7]: showed any inhibition of mannosidase activity; inhibition at 1000 µM ([7]; read-out: Other specificities (% inhibition at 1 mM): α-D-mannosidase, human liver extract, 1 mM compound): 64% |
| 1 | 50 | 0.002 | 5.5e-06 | OC[C@H]1N[C@@H](c2ccccc2)[C@@H](O)[C@@H](O)[C@@H]1O [Compound 9, β-1-C-Phenyl Deoxymannojirimycin] | more potent fucosidase inhibitor than is DMJ (10) | 6.3 |  |
|  |  |  |  | C[C@@H]1NC[C@@H](O)[C@H](O)[C@@H]1O [Compound 4, 1,5-Dideoxy-1,5-imino-L-fucitol] |  |  | inhibition of mammalian α-L-fucosidases, in words [8]: very powerful and highly specific inhibitor |
|  |  |  |  | OC[C@H]1N[C@H](CO)[C@@H](O)[C@H](O)[C@H]1O [Compound 2, α-homonojirimycin] |  |  | inhibition of α-glucosidase activity, in words [9]: potent inhibitors of α-glucosidase activity |
|  |  |  |  | OC[C@H]1NC[C@H](O)[C@@H](O)[C@@H]1O [Compound 1, deoxynojirimycin] |  |  | inhibition of α-glucosidase activity, in words [9]: potent inhibitors of α-glucosidase activity |

| Compound | Ki [1] [µM] | Other specificities (% inhibition at 1 mM): N-acetyl-β-D-hexosaminidase [2] [%] | Ki [3] [M] | Ki [4] [M] | fucosidase inhibition, in words [1] | pKa [5] | also measured |
| --- | --- | --- | --- | --- | --- | --- | --- |
| C[C@@H]1N[C@H](CO)[C@@H](O)[C@H](O)[C@@H]1O [Compound 7, 2,6-Imino-2,6,7-trideoxy-L-glycero-D-mannohepitol] |  |  | 1.4e-07 | 2e-08 | did not diminish the inhibition of α-L-fucosidase | 7.1 | inhibition at 1000 µM [6]: 27% |
| C[C@H]1[C@@H](O)[C@@H](O)[C@H](O)CN1C [MeFDJ, reference compound] | 0.05 | 59 |  |  |  | 7.8 |  |
